In patent publication US7214505B1, “Cell-based assay for the detection of toxic analytes” (priority 1999, dated 2007):

Legend:
Vibrio fischeri [1] = experiment: Microtox test with bacteria immobilized on silica gel (bacteria/silica mixture); type: cell-based; conditions: FIGS. 3, 4 & 5; silica gel
Protocol: For initial testing of such a bacteria/silica mixture, rehydration of freeze-dried luminescent Vibrio fischeri Microtox® reagent is carried out as before, and 4 aliquots are taken. One aliquot of the resultant suspension is mixed with 0.5 g of silica gel, although the amount of silica gel can be varied. After the bacteria are adsorbed onto the silica gel, the resultant mixture is used as the bioluminescent reagent in toxicity assays. Two of the other aliquots are used as controls (with and without silica gel), and the third is tested with toxicant alone.

Vibrio fischeri [2] = experiment: Toxicity assay with freeze-dried (stabilized) silica-based bacterial reagent vs standard Microtox reagent; type: cell-based; conditions: 10 ppm malathion; FIG. 5
Protocol: Stabilization of the bacteria used in the standard Microtox® test is performed by freeze-drying, and the effects of stabilization on such a bacteria-silica mixture were also investigated. A bacteria-silica mixture at a specific bacteria to silica ratio is subjected to freeze-drying at −30° C. for 6 hours under a vacuum, i.e. 0.1 hPa. Thereafter, the temperature is ramped up to +15° C. at increments of 10° C. per 15 minutes, retaining the vacuum, and then held at +15° C. for 8 hours.
Tests are then run to compare this freeze-dried mixture with the standard Microtox® freeze-dried reagent.

Vibrio fischeri [3] = experiment: Modified Microtox test, toxicant adsorbed onto silica gel then added to bacterial suspension; conditions: FIGS. 1 and 2, 30 minutes incubation
Protocol: Briefly the Microtox® tests used for this study first involve rehydration of freeze-dried luminescent Vibrio fischeri bacteria, i.e. the Microtox® reagent.
The reconstituted bacterial suspension is added to a series dilution of sample in 2% NaCl and incubated for 15° C. for 0.5–15 minutes. The dilutions can be modified to give any desired concentration of sample, and the volume of reagent used per test can also be varied.
After incubation, bioluminescence is measured in a suitable photometer, such as a Deltatox® photometer or that in the Microtox® Model 500 Analyzer.
Data is recorded in terms of decrease luminescence over time.
Generally, these tests are carried out in the presence of an adsorbent which is referred to as using a modified Microtox® test.
In one embodiment of the invention, the solid-phase adsorbent is added to samples of toxicants and left for 30 minutes at ambient temperature. The amount of solid adsorbent and the concentrations of toxicant used are varied.
During this time, rehydration of the freeze-dried Microtox® bacteria as an aqueous suspension is performed, and it is left to stabilize at 15° C. for 15 minutes. […]
At the same time, a control sample of bacteria is monitored for comparison. […]
After 30 minutes of incubation, the bioluminescence is measured using a photometer, and data is recorded in terms of decrease of luminescence over time.

CCOC(=O)CC(SP(=S)(OC)OC)C(=O)OCC (centres unmarked) [malathion]
toxic effect of aqueous toxicant on bioluminescence with bacteria immobilized by adsorption onto a solid surface, compared to free bacteria (Vibrio fischeri [1]): enhanced | % toxic effect with stabilized silica-based reagent compared to standard Microtox reagent (Vibrio fischeri [2]): increased | toxicity effect (effect on luminescence) when toxicant is adsorbed onto a solid surface, compared to aqueous toxicant (Vibrio fischeri [3]): increased

Oc1ccccc1 [phenol]
toxic effect of aqueous toxicant on bioluminescence with bacteria immobilized by adsorption onto a solid surface, compared to free bacteria (Vibrio fischeri [1]): enhanced | toxicity effect (effect on luminescence) when toxicant is adsorbed onto a solid surface, compared to aqueous toxicant (Vibrio fischeri [3]): increased
